In PubChem BioAssay AID1963983 (Molecular Pharmacology Branch, DTP, NCI, 2024):

Tested on: 186277-243-T-J2-PDC multi-cell spheroid viability
Assay: Anticancer human tumor 186277-243-T-J2-PDC patient-derived colon adenocarcinoma cell line growth inhibition [PI3K]
Settings: for IC50: curve of first compound; for viability, T/C: stronger effect = lower value
Description: Combinatorial screen of targeted agents with the PI3K inhibitors inavolisib, alpelisib, duvelisib, and copanlisib in multi-cell type tumor spheroids
A high-throughput screen of multi-cell type tumor spheroids was designed to identify active combinations of targeted small molecules and PI3K pathway inhibitors. Complex spheroids include a stromal component modeled by human endothelial cells (HUVEC) and fibroblasts modeled by human mesenchymal stem cells (MSCs). The concentration ranges selected for each drug and investigational agent were based upon clinically achievable concentrations if the clinical Cmax of the agent was known.
Compounds. The drugs and investigational agents: inavolisib (NSC800729), alpelisib (NSC765974), duvelisib (NSC772469), copanlisib (NSC816437), ipatasertib (NSC767898), afuresertib (NSC778305), talazoparib (NSC767125), sapanisertib (NSC764658), selumetinib (NSC741078), tovorafenib (DAY101, NSC766906), vemurafenib (NSC761431), ravoxertinib (NSC781343), sotorasib (NSC818433), MRTX1133 (NSC 836407), abemaciclib (NSC 768073), palbociclib (NSC758247), venetoclax (NSC 766270), SY5609 (NSC837396), enzalutamide (NSC755605), and darolutamide (NSC825331), were obtained from the National Cancer Institute (NCI) Developmental Therapeutics Program Chemical Repository. The FDA-approved anticancer drug set is available from the NCI Developmental Therapeutics Program. […] The stock solutions were prepared in dimethyl sulfoxide (DMSO, Sigma-Aldrich, St. Louis, MO, cat. D2650) at 800-fold the tested concentration and stored at -70 degrees C prior to their use. All drugs and investigational agents were tested over a range starting from a high concentration at or near the clinical Cmax and decreasing in half-log increments. If the clinical Cmax for an agent had not been determined, the highest concentration tested was 10 microM.
Cell Culture. All cells were maintained in an incubator at 37 degrees C and 5% CO2 with 95% humidity. The PDC lines were cultured according to standard operating procedures established by the NCI PDMR (https://pdmr.cancer.gov/sops/default.htm). All PDCs were thawed and cultured in Matrigel-coated flasks prepared with a working solution of 1X Ham's F-12 nutrient mix, without supplementation (Invitrogen, Waltham, MA, cat. 11765054), 100 U/mL penicillin-streptomycin (Invitrogen, cat. 15140122), and 2.5% Matrigel (Corning Inc., Corning, NY, cat. 354248) for the first three passages. The 354836-022-R-J1-PDC, 475296-252-R-J1-PDC, and 997726-040-R-J2-PDC lines were cultured in 6A media, which includes advanced DMEM/F-12 (Thermo Fisher Scientific, cat. 12634028), 10 mM HEPES (Thermo Fisher Scientific, cat. 15630080), 1X GlutaMAX supplement (Thermo Fisher Scientific, cat. 35050061), 0.1 mg/mL primocin (InvivoGen, San Diego, CA, cat. ant-pm-2), 10% defined fetal bovine serum, heat inactivated (HyClone Laboratories Inc., Logan, UT, cat. SH30070.03HI), 50% L-WRN conditioned media (ATCC, cat. CRL-3276), 1.25 mM N-Acetyl-L-cysteine (Sigma-Aldrich, cat. A9165), 10 mM nicotinamide (Sigma-Aldrich, cat. N0636), 1X B-27 supplement (Thermo Fisher Scientific, cat. 17504044), 1X N-2 supplement (Thermo Fisher Scientific, cat. 17502048), and 10 microM Y-27632 dihydrochloride (Tocris Bioscience, Bristol, United Kingdom, cat. 1254). The 624824-186-R-J2-PDC line was cultured in 6C/Colon 1B media, which includes all 6A media components plus 50 ng/mL human EGF recombinant protein (Thermo Fisher Scientific, cat. PHG0311). […]

[1] = second compound 0.0316 µM, first compound 0.0316 µM
[2] = second compound 0.0316 µM, first compound 0.1 µM
[3] = second compound 0.0316 µM, first compound 0.316 µM
[4] = second compound 0.0316 µM, first compound 1 µM
[5] = second compound 0.0316 µM, first compound 3.16 µM
[6] = second compound 0.0316 µM, first compound 10 µM
[7] = second compound 0.1 µM, first compound 0.0316 µM
[8] = second compound 0.1 µM, first compound 0.1 µM
[9] = second compound 0.1 µM, first compound 0.316 µM
[10] = second compound 0.1 µM, first compound 1 µM
[11] = second compound 0.1 µM, first compound 3.16 µM
[12] = second compound 0.1 µM, first compound 10 µM
[13] = second compound 0.316 µM, first compound 0.0316 µM
[14] = second compound 0.316 µM, first compound 0.1 µM
[15] = second compound 0.316 µM, first compound 0.316 µM
[16] = second compound 0.316 µM, first compound 1 µM
[17] = second compound 0.316 µM, first compound 3.16 µM
[18] = second compound 0.316 µM, first compound 10 µM
[19] = second compound 1 µM, first compound 0.0316 µM
[20] = second compound 1 µM, first compound 0.1 µM
[21] = second compound 1 µM, first compound 0.316 µM
[22] = second compound 1 µM, first compound 1 µM
[23] = second compound 1 µM, first compound 3.16 µM
[24] = second compound 1 µM, first compound 10 µM
[25] = second compound 3.16 µM, first compound 0.0316 µM
[26] = second compound 3.16 µM, first compound 0.1 µM
[27] = second compound 3.16 µM, first compound 0.316 µM
[28] = second compound 3.16 µM, first compound 1 µM
[29] = second compound 3.16 µM, first compound 3.16 µM
[30] = second compound 3.16 µM, first compound 10 µM
[31] = second compound 10 µM, first compound 0.0316 µM
[32] = second compound 10 µM, first compound 0.1 µM
[33] = second compound 10 µM, first compound 0.316 µM
[34] = second compound 10 µM, first compound 1 µM
[35] = second compound 10 µM, first compound 3.16 µM
[36] = second compound 10 µM, first compound 10 µM
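Note: spheroids exposed to compounds for seven days before viability reading.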
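Throughout, for viability, T/C: 100% = DMSO vehicle control viability.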

`C[C@@H](NC(=O)c1ncnc(N)c1Cl)c1ncc(C(=O)Nc2cc(C(F)(F)F)c(Cl)cn2)s1` + CC(Nc1ncnc2nc[nH]c12)c1cc2cccc(Cl)c2c(=O)n1-c1ccccc1 showed an IC50 (second compound 0.0316 µM) greater than 10 µM, an IC50 (second compound 0.1 µM) greater than 10 µM and an IC50 (second compound 0.316 µM) greater than 10 µM. For the same compound, the IC50 (second compound 1 µM) was greater than 10 µM, the IC50 (second compound 3.16 µM) was greater than 10 µM and the IC50 (second compound 10 µM) was 6.16 µM. The viability, T/C [1] was 92.6%, the viability, T/C [2] was 89.9% and the viability, T/C [3] was 93.7%. It also gave a viability, T/C [4] of 83.4%, a viability, T/C [5] of 105% and a viability, T/C [6] of 79.1%. The viability, T/C [7] was 84.3%, the viability, T/C [8] was 87.2% and the viability, T/C [9] was 90.1%. It also gave a viability, T/C [10] of 105%, a viability, T/C [11] of 108% and a viability, T/C [12] of 88%. For the same compound, the viability, T/C [13] was 94.5%, the viability, T/C [14] was 107% and the viability, T/C [15] was 94.3%. The viability, T/C [16] was 95%, the viability, T/C [17] was 105% and the viability, T/C [18] was 80.5%. The viability, T/C [19] was 88.1%, the viability, T/C [20] was 105% and the viability, T/C [21] was 96.7%. The viability, T/C [22] was 91%, the viability, T/C [23] was 102% and the viability, T/C [24] was 61.9%. The viability, T/C [25] was 107%, the viability, T/C [26] was 97.2% and the viability, T/C [27] was 104%. For the same compound, the viability, T/C [28] was 99.3%, the viability, T/C [29] was 93.3% and the viability, T/C [30] was 66.4%. It also gave a viability, T/C [31] of 84.8%, a viability, T/C [32] of 91.7% and a viability, T/C [33] of 107%. It also gave a viability, T/C [34] of 95.5%, a viability, T/C [35] of 72.8% and a viability, T/C [36] of 33.5%.

With `Cn1nccc1Nc1nccc(-c2ccn(C(CO)c3ccc(Cl)c(F)c3)c(=O)c2)n1` (stereo unspecified) + CC(Nc1ncnc2nc[nH]c12)c1cc2cccc(Cl)c2c(=O)n1-c1ccccc1 the IC50 (second compound 0.0316 µM) was 2.8 µM, the IC50 (second compound 0.1 µM) was 2.38 µM and the IC50 (second compound 0.316 µM) was 2.4 µM. It also gave an IC50 (second compound 1 µM) of 2.09 µM, an IC50 (second compound 3.16 µM) of 1.16 µM and an IC50 (second compound 10 µM) of 0.339 µM. It also gave a viability, T/C [1] of 82.5%, a viability, T/C [2] of 86.9% and a viability, T/C [3] of 112%. The viability, T/C [4] was 83.7%, the viability, T/C [5] was 46.3% and the viability, T/C [6] was 23.6%. For the same compound, the viability, T/C [7] was 85.3%, the viability, T/C [8] was 103% and the viability, T/C [9] was 107%. The viability, T/C [10] was 89.1%, the viability, T/C [11] was 37.2% and the viability, T/C [12] was 26.2%. For the same compound, the viability, T/C [13] was 94.7%, the viability, T/C [14] was 96.1% and the viability, T/C [15] was 125%. The viability, T/C [16] was 83.1%, the viability, T/C [17] was 40.9% and the viability, T/C [18] was 23.7%. The viability, T/C [19] was 94.3%, the viability, T/C [20] was 101% and the viability, T/C [21] was 103%. The viability, T/C [22] was 75.7%, the viability, T/C [23] was 36.3% and the viability, T/C [24] was 24.3%. It also gave a viability, T/C [25] of 106%, a viability, T/C [26] of 100% and a viability, T/C [27] of 105%. It also gave a viability, T/C [28] of 53.9%, a viability, T/C [29] of 27.6% and a viability, T/C [30] of 20.8%. It also gave a viability, T/C [31] of 88.7%, a viability, T/C [32] of 91.4% and a viability, T/C [33] of 51%. The viability, T/C [34] was 27.5%, the viability, T/C [35] was 24.5% and the viability, T/C [36] was 15.5%.

For `CC(C)n1nc(-c2ccc3oc(N)nc3c2)c2c(N)ncnc21` + CC(Nc1ncnc2nc[nH]c12)c1cc2cccc(Cl)c2c(=O)n1-c1ccccc1, the IC50 (second compound 0.0316 µM) was 0.0634 µM, the IC50 (second compound 0.1 µM) was 0.0592 µM and the IC50 (second compound 0.316 µM) was 0.0617 µM. For the same compound, the IC50 (second compound 1 µM) was 0.0561 µM, the IC50 (second compound 3.16 µM) was 0.0478 µM and the IC50 (second compound 10 µM) was 0.0472 µM. It also gave a viability, T/C (second compound 0.0316 µM, first compound 0.000316 µM) of 86.4%, a viability, T/C (second compound 0.0316 µM, first compound 0.001 µM) of 96% and a viability, T/C (second compound 0.0316 µM, first compound 0.00316 µM) of 108%. For the same compound, the viability, T/C (second compound 0.0316 µM, first compound 0.01 µM) was 90.2%, the viability, T/C [1] was 81.5% and the viability, T/C [2] was 29.2%. For the same compound, the viability, T/C (second compound 0.1 µM, first compound 0.000316 µM) was 112%, the viability, T/C (second compound 0.1 µM, first compound 0.001 µM) was 101% and the viability, T/C (second compound 0.1 µM, first compound 0.00316 µM) was 96.7%. The viability, T/C (second compound 0.1 µM, first compound 0.01 µM) was 97.1%, the viability, T/C [7] was 80.3% and the viability, T/C [8] was 25.3%. The viability, T/C (second compound 0.316 µM, first compound 0.000316 µM) was 105%, the viability, T/C (second compound 0.316 µM, first compound 0.001 µM) was 103% and the viability, T/C (second compound 0.316 µM, first compound 0.00316 µM) was 89.1%. It also gave a viability, T/C (second compound 0.316 µM, first compound 0.01 µM) of 103%, a viability, T/C [13] of 79.6% and a viability, T/C [14] of 28.6%. For the same compound, the viability, T/C (second compound 1 µM, first compound 0.000316 µM) was 96.7%, the viability, T/C (second compound 1 µM, first compound 0.001 µM) was 108% and the viability, T/C (second compound 1 µM, first compound 0.00316 µM) was 102%. It also gave a viability, T/C (second compound 1 µM, first compound 0.01 µM) of 96.3%, a viability, T/C [19] of 72.5% and a viability, T/C [20] of 27.4%. The viability, T/C (second compound 3.16 µM, first compound 0.000316 µM) was 95%, the viability, T/C (second compound 3.16 µM, first compound 0.001 µM) was 90.8% and the viability, T/C (second compound 3.16 µM, first compound 0.00316 µM) was 95.4%. It also gave a viability, T/C (second compound 3.16 µM, first compound 0.01 µM) of 92.2%, a viability, T/C [25] of 64.9% and a viability, T/C [26] of 23.5%. It also gave a viability, T/C (second compound 10 µM, first compound 0.000316 µM) of 89.7%, a viability, T/C (second compound 10 µM, first compound 0.001 µM) of 94.5% and a viability, T/C (second compound 10 µM, first compound 0.00316 µM) of 78%. It also gave a viability, T/C (second compound 10 µM, first compound 0.01 µM) of 80.5%, a viability, T/C [31] of 69.7% and a viability, T/C [32] of 17.6%.
